In the experiment the target is T1, human CD73 (Homo sapiens, UniProt P21589).
T1 sequence (P21589 27-549): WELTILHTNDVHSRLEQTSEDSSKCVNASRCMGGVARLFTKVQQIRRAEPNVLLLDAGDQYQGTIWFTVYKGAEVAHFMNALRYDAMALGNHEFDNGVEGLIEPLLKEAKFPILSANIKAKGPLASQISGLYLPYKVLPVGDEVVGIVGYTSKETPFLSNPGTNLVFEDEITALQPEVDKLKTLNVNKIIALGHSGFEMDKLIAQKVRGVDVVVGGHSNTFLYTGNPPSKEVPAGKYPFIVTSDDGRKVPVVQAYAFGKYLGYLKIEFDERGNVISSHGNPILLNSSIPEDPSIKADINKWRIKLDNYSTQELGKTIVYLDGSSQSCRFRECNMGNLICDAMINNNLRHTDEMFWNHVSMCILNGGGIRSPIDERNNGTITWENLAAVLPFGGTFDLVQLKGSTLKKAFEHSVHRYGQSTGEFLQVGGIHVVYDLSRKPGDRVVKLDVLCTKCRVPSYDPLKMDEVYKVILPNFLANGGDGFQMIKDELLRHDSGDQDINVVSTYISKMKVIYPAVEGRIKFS
Nature of the experiment: Inhibition of Ecto-5′-nucleotidase (CD73) activity in CHO-CD73 cells, phosphate release from AMP. It counts as cell-based. Conditions: CHO-K1 cells stably transfected with human CD73; 25 μM AMP; 50 minutes, 37° C.; read-out: Potency: CD73 IC50.

48 compounds from patent US11931343B2 (ARCUS BIOSCIENCES, INC., priority 2018, dated 2024) can be followed below.

For orientation: IC50 means the midpoint of a concentration-inhibition curve. `FC(F)(F)c1ccccc1Cn1nccc1-c1cc(Cl)c2nnn(-c3ccc4cn[nH]c4c3)c2c1` [Example 102]: the IC50 is 0.1 to 1 µM.

In the case of `Clc1cccnc1Cn1nccc1-c1cc(Cl)c2nnn(-c3ccc4cn[nH]c4c3)c2c1` [Example 61], the IC50 is more than 1 µM.

For `N#Cc1ccc(Cn2ncc(Cl)c2-c2ccc3nnn(-c4ccc5[nH]c(=O)[nH]c5c4)c3c2)cc1` [Example 323], the IC50 lay within 0.1 to 1 µM.

Take `O=c1[nH]c2ccc(-n3nnc4c(F)cc(-c5ccnn5Cc5ccc6c(c5)OC(F)(F)O6)cc43)cc2[nH]1` [Example 233]: the half-maximal inhibitory concentration (IC50) was more than 1 µM.

Turning to `Fc1c(-c2ccnn2Cc2ccccc2)ccc2nnn(-c3ccc4cn[nH]c4c3)c12` [Example 130], the IC50 was more than 1 µM.

Turning to `FC(F)(F)c1ccc(Cn2nccc2-c2cc(Cl)c3nnn(-c4ccc5cn[nH]c5c4)c3c2)nc1` [Example 108], the IC50 lay in the range of 0.1 to 1 µM.

With `N#Cc1ccc(Cn2nccc2-c2cc3c(c[n+]2[O-])nnn3-c2ccc3cn[nH]c3c2)cc1` [Example 363], the IC50 is 0.1 to 1 µM.

For the compound `Cc1cnc(Cn2nccc2-c2cc(Cl)c3nnn(-c4ccc5cn[nH]c5c4)c3c2)c(F)c1` [Example 74], the IC50 was in the range of 0.1 to 1 µM.

Consider `O=c1[nH]c2ccc(-n3nnc4c(F)cc(-c5ccnn5Cc5ccc6cn[nH]c6c5)cc43)cc2[nH]1` [Example 195], for which the IC50 was in the range of 0.1 to 1 µM.

`COCc1n[nH]c2cc(-n3nnc4c(F)cc(-c5ccnn5Cc5ccc(C#N)cc5)cc43)ccc12` [Example 353]: the half-inhibitory concentration (IC50) was more than 1 µM.

`O=c1[nH]c2ccc(-n3nnc4c(Cl)cc(-c5ccnn5Cc5cccc[n+]5[O-])cc43)cc2[nH]1` [Example 265]: the IC50 is more than 1 µM.

In the case of `N#Cc1cnc(Cn2nccc2-c2cc(F)c3nnn(-c4ccc5[nH]c(=O)[nH]c5c4)c3c2)c(F)c1` [Example 255], the half-maximal inhibitory concentration (IC50) fell in the range of 0.1 to 1 µM.

For the compound `O=C(O)c1cccc(-n2nnc3c(F)cc(-c4ccnn4Cc4ccc(Cl)cc4Cl)cc32)c1` [Example 132], the IC50 was more than 1 µM.

On to `Cc1cc(C)cc(-n2nccc2-c2cc(F)c3nnn(-c4ccc5[nH]c(=O)[nH]c5c4)c3c2)c1` [Example 226], for which the IC50 was in the range of 0.1 to 1 µM.

Turning to `O=c1[nH]c2ccc(-n3nnc4c(Cl)cc(-c5ccnn5Cc5ccc(Cl)cc5Cl)cc43)cc2[nH]1` [Example 186], the IC50 fell in the range of 0.1 to 1 µM.

On to `N#Cc1ccc(Cn2nccc2-c2cc(F)c3nnn(-c4ccc5[nH]c(=O)[nH]c5c4)c3c2)c(CO)c1` [Example 297], for which the IC50 is less than 0.1 µM.

On to `O=c1[nH]c2ccc(-n3nnc4c(F)cc(-c5ccnn5-c5cc(Cl)cc(Cl)c5)cc43)cc2[nH]1` [Example 227], for which the concentration for half-maximal inhibition (IC50) lay within 0.1 to 1 µM.

`O=c1[nH]c2ccc(-n3nnc4c(Cl)cc(-c5ccnn5C5CCc6cc(Cl)ccc65)cc43)cc2[nH]1` (stereo not drawn) [Example 262]: the half-inhibitory concentration (IC50) is 0.1 to 1 µM.

With `N#Cc1ccc(Cn2nccc2-c2cc(Cl)c3nnn(-c4ccnc(N)c4)c3c2)nc1` [Example 145], the IC50 is more than 1 µM.

On to `Cc1cc2nnn(-c3ccc4cn[nH]c4c3)c2cc1-c1ccnn1C(C)c1ccc(Cl)cn1` (stereo not drawn) [Example 399], for which the 50% inhibitory concentration (IC50) is more than 1 µM.

Regarding `Fc1ccc(Cn2nccc2-c2cnc3cnn(-c4ccc5cn[nH]c5c4)c3c2)nc1` [Example 181], the half-inhibitory concentration (IC50) is more than 1 µM.

As to `C=C(C)c1cc(C#N)ccc1Cn1nccc1-c1cc(F)c2nnn(-c3ccc4[nH]c(=O)[nH]c4c3)c2c1` [Example 264], the IC50 was 0.1 to 1 µM.

`Fc1cc(-c2ccnn2Cc2ccc(Cl)cn2)cc2c1cnn2-c1ccc2cn[nH]c2c1` [Example 133]: the IC50 was more than 1 µM.

With `O=c1[nH]c2ccc(-n3nnc4c(Cl)cc(-c5ccnn5Cc5cc(F)c(Cl)cc5Cl)cc43)cc2[nH]1` [Example 256], the IC50 fell in the range of 0.1 to 1 µM.

As for `N#Cc1ccc(Cn2nccc2-c2cc(F)c3nnn(-c4ccc5[nH]c(=O)[nH]c5c4)c3c2)c(S(=O)(=O)c2ccccc2)c1` [Example 291], the IC50 fell in the range of 0.1 to 1 µM.

Turning to `Clc1cnc(Cn2nccc2-c2ccc3nnn(-c4ccc5cn[nH]c5c4)c3c2)c(Cl)c1` [Example 79], the IC50 lay within 0.1 to 1 µM.

Regarding `O=c1[nH]c2ccc(-n3nnc4cnc(-c5ccnn5Cc5ccc(Cl)c(F)c5)cc43)cc2[nH]1` [Example 194], the half-maximal inhibitory concentration (IC50) lay in the range of 0.1 to 1 µM.

Turning to `Fc1cc(-c2ccnn2Cc2ccccc2)cc2c1nnn2-c1cc2[nH]ncc2cn1` [Example 138], the half-inhibitory concentration (IC50) is more than 1 µM.

Turning to `CC(c1ccc(Cl)c[n+]1[O-])n1c(-c2cc3c(cc2F)nnn3-c2ccc3cn[nH]c3c2)cc[n+]1[O-]` (stereo not drawn) [Example 387], the half-inhibitory concentration (IC50) fell in the range of 0.1 to 1 µM.

Turning to `COCc1cc(C#N)ccc1Cn1nccc1-c1cc(F)c2nnn(-c3ccc4[nH]c(=O)[nH]c4c3)c2c1` [Example 279], the IC50 fell in the range of 0.1 to 1 µM.

As to `N#Cc1ccc(Cn2nccc2-c2cc(F)c3nnn(-c4ccc5[nH]c(=O)[nH]c5c4)c3c2)c(C(=O)O)c1` [Example 306], the 50% inhibitory concentration (IC50) was in the range of 0.1 to 1 µM.

Consider `CC(c1ccc(C(N)=O)cc1)n1nccc1-c1ccc2nnn(-c3ccc4cn[nH]c4c3)c2c1` (stereo not drawn) [Example 118], for which the IC50 is more than 1 µM.

`N#Cc1ccc(Cn2nccc2-c2cc3c(cn2)cnn3-c2ccc3cn[nH]c3c2)cc1` [Example 147]: the IC50 is more than 1 µM.

`O=c1[nH]c2ccc(-n3nnc4c(Cl)cc(-c5ccnn5Cc5cc(F)ccc5F)cc43)cc2[nH]1` [Example 252]: the IC50 was more than 1 µM.

`N#Cc1ccc(Cn2nccc2-c2cc3c(nnn3-c3ccc4cn[nH]c4c3)c(=O)[nH]2)cc1` [Example 352]: the IC50 is less than 0.1 µM.

On to `Clc1ccc(Cn2nccc2-c2cc(Cl)c3nnn(-c4ccc5cn[nH]c5c4)c3c2)c(Cl)c1` [Example 59], for which the IC50 was less than 0.1 µM.

For the compound `N#Cc1ccc(Cn2nccc2-c2cc(F)c3nnn(-c4ccc5c(CC(=O)O)n[nH]c5c4)c3c2)cc1` [Example 348], the IC50 was more than 1 µM.

As for `CCc1ccc(Cn2nccc2-c2cc(Cl)c3nnn(-c4ccc5cn[nH]c5c4)c3c2)cc1` [Example 68], the IC50 was less than 0.1 µM.

Consider `O=c1[nH]c2ccc(-n3nnc4c(F)cc(-c5ccnn5CCOc5ccccc5)cc43)cc2[nH]1` [Example 202], for which the 50% inhibitory concentration (IC50) was more than 1 µM.

Take `Cc1ccc(C(C)n2nccc2-c2cc(Cl)c3nnn(-c4ccc5cn[nH]c5c4)c3c2)nc1` (stereo not drawn) [Example 380]: the IC50 lay within 0.1 to 1 µM.

Take `N#Cc1ccc(Cn2nccc2-c2cnc3c(CO)nn(-c4ccc5[nH]c(=O)[nH]c5c4)c3c2)cc1` [Example 336]: the IC50 fell in the range of 0.1 to 1 µM.

As for `O=c1[nH]c2ccc(-n3nnc4c(F)cc(-c5ccnn5Cc5ccc(Cl)c(F)c5)cc43)cc2[nH]1` [Example 192], the half-inhibitory concentration (IC50) lay within 0.1 to 1 µM.

Consider `Cc1cccc(-n2ncc(Cl)c2-c2cc(F)c3nnn(-c4ccc5cn[nH]c5c4)c3c2)c1` [Example 413], for which the half-inhibitory concentration (IC50) lay within 0.1 to 1 µM.

For the compound `FC(F)(F)Oc1ccccc1Cn1nccc1-c1cc(Cl)c2nnn(-c3ccc4cn[nH]c4c3)c2c1` [Example 53], the IC50 was in the range of 0.1 to 1 µM.

Turning to `O=C1CCC(c2cc(F)c3nnn(-c4ccc5cn[nH]c5c4)c3c2)N1Cc1ccc(Cl)cc1Cl` (stereo not drawn) [Example 143], the IC50 is more than 1 µM.

`O=C(Cn1nccc1-c1cc(Cl)c2nnn(-c3ccc4cn[nH]c4c3)c2c1)N1CCCCC1` [Example 184]: the IC50 is more than 1 µM.

As for `N#Cc1ccc(Cn2nccc2-c2cc(F)c3nnn(-c4ccc5c(COCCO)n[nH]c5c4)c3c2)cc1` [Example 355], the half-maximal inhibitory concentration (IC50) is more than 1 µM.

On to `CC(C)c1ccc(Cn2nccc2-c2cc(Cl)c3nnn(-c4ccc5cn[nH]c5c4)c3c2)cc1` [Example 51], for which the half-inhibitory concentration (IC50) lay within 0.1 to 1 µM.
